Data as given in PubChem BioAssay (NCI).
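Growth conditions: 96-well plates. Treatment: test compound, 48 hours, 5 concentrations. Analysis: linear interpolation between bracketing concentrations; unreached endpoints set to highest concentration. At the GI50, growth is halved. TGI marks complete inhibition of growth.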

How the values were obtained:
Assay in all cases: NCI anticancer screen, dose series, 48 h
[1] = system: SK-MEL-2 melanoma
[2] = system: LXFL 529 NSCLC
[3] = system: COLO 205 colon
[4] = system: KM12 colon
[5] = system: M14 melanoma
[6] = system: HOP-62 NSCLC
[7] = system: K-562 leukemia
[8] = system: SK-MEL-28 melanoma
[9] = system: TK-10 renal
[10] = system: OVCAR-5 ovarian
[11] = system: MALME-3M melanoma
[12] = system: MOLT-4 leukemia
[13] = system: NCI-H23 lung
[14] = system: NCI-H522 lung
[15] = system: KM20L2 colon
[16] = system: SNB-75 CNS
[17] = system: HCC-2998 colon
[18] = system: OVCAR-3 ovarian
[19] = system: SK-MEL-5 melanoma
[20] = system: U251 CNS
[21] = system: IGROV1 ovarian
[22] = system: HCT-116 colon
[23] = system: SN12C renal
[24] = system: DMS 273 small cell lung
[25] = system: SF-268 CNS
[26] = system: SF-295 CNS
[27] = system: RPMI-8226 leukemia
[28] = system: EKVX NSCLC
[29] = system: UACC-62 melanoma
[30] = system: HL-60(TB) leukemia
[31] = system: HT29 colon
[32] = system: HCT-15 colon
[33] = system: DMS 114 small cell lung
[34] = system: OVCAR-4 ovarian
[35] = system: SK-OV-3 ovarian
[36] = system: UACC-257 melanoma
[37] = system: SF-539 CNS
[38] = system: SR leukemia
[39] = system: NCI-H460 lung
[40] = system: OVCAR-8 ovarian
[41] = system: SW-620 colon
[42] = system: UO-31 renal
[43] = system: CCRF-CEM leukemia
[44] = system: A549 NSCLC
[45] = system: CAKI-1 renal
[46] = system: DLD-1 colon
[47] = system: HOP-92 NSCLC
[48] = system: ACHN renal
[49] = system: A498 renal
[50] = system: SNB-78 CNS
[51] = system: SNB-19 CNS
[52] = system: 786-0 renal
[53] = system: M19-MEL melanoma
[54] = system: LOX IMVI melanoma
[55] = system: NCI-H226 lung
[56] = system: DU-145 prostate
[57] = system: T-47D breast
[58] = system: MCF7 breast
[59] = system: NCI/ADR-RES ovarian
[60] = system: MDA-N
[61] = system: MDA-MB-435
[62] = system: MDA-MB-231 breast
[63] = system: PC-3 prostate
[64] = system: RXF 393 renal
[65] = system: BT-549 breast
[66] = system: HS 578T breast

## CC12CCC(=O)N1c1cnccc1N2 (stereo unspecified)
[1]
  TGI: > 100 µM
[2]
  TGI: > 100 µM
[3]
  TGI: > 100 µM
[4]
  TGI: > 100 µM
[5]
  TGI: > 100 µM
[6]
  TGI: > 100 µM
[7]
  TGI: > 100 µM
[8]
  TGI: > 100 µM
[9]
  TGI: > 100 µM
[10]
  TGI: > 100 µM
[11]
  TGI: > 100 µM
[12]
  TGI: > 100 µM
[13]
  TGI: > 100 µM
[14]
  TGI: > 100 µM
[15]
  TGI: > 100 µM
[16]
  TGI: > 100 µM
[17]
  TGI: > 100 µM
[18]
  TGI: > 100 µM
[19]
  TGI: > 100 µM
[20]
  TGI: > 100 µM
[21]
  TGI: > 100 µM
[22]
  TGI: > 100 µM
[23]
  TGI: > 100 µM
[24]
  TGI: > 100 µM
[25]
  TGI: > 100 µM
[26]
  TGI: > 100 µM
[27]
  TGI: > 100 µM
[28]
  TGI: > 100 µM
[29]
  TGI: > 100 µM
[30]
  TGI: > 100 µM
[31]
  TGI: > 100 µM
[32]
  TGI: > 100 µM
[33]
  TGI: > 100 µM
[34]
  TGI: > 100 µM
[35]
  TGI: > 100 µM
[36]
  TGI: > 100 µM
[37]
  TGI: > 100 µM
[38]
  TGI: > 100 µM
[39]
  TGI: > 100 µM
[40]
  TGI: > 100 µM
[41]
  TGI: > 100 µM
[42]
  TGI: > 100 µM
[43]
  TGI: > 100 µM
[44]
  TGI: > 100 µM
[45]
  TGI: > 100 µM
[46]
  TGI: > 100 µM
[47]
  TGI: > 100 µM
[48]
  TGI: > 100 µM
[49]
  TGI: > 100 µM
[50]
  TGI: > 100 µM
[51]
  TGI: > 100 µM

## CC(C)(c1cn(Cc2ccccc2)c2ccccc12)c1cn(Cc2ccccc2)c2ccccc12
[2]
  TGI: > 100 µM
[3]
  TGI: > 100 µM
[4]
  TGI: > 100 µM
[5]
  TGI: > 100 µM
[6]
  TGI: > 100 µM
[7]
  TGI: > 100 µM
[52]
  TGI: > 100 µM
[10]
  TGI: > 100 µM
[12]
  TGI: > 100 µM
[13]
  TGI: > 100 µM
[14]
  TGI: > 100 µM
[16]
  TGI: 99.6 µM
[18]
  TGI: > 100 µM
[19]
  TGI: > 100 µM
[20]
  TGI: > 100 µM
[21]
  TGI: > 100 µM
[22]
  TGI: > 100 µM
[23]
  TGI: 5.07 µM
[25]
  TGI: > 100 µM
[26]
  TGI: > 100 µM
[27]
  TGI: > 100 µM
[28]
  TGI: > 100 µM
[29]
  TGI: > 100 µM
[30]
  TGI: > 100 µM
[31]
  TGI: > 100 µM
[32]
  TGI: > 100 µM
[33]
  TGI: > 100 µM
[53]
  TGI: > 100 µM
[34]
  TGI: > 100 µM
[35]
  TGI: > 100 µM
[37]
  TGI: > 100 µM
[38]
  TGI: > 100 µM
[39]
  TGI: > 100 µM
[40]
  TGI: > 100 µM
[41]
  TGI: > 100 µM
[54]
  TGI: > 100 µM
[43]
  TGI: > 100 µM
[44]
  TGI: > 100 µM
[45]
  TGI: > 100 µM
[46]
  TGI: > 100 µM
[47]
  TGI: > 100 µM
[48]
  TGI: > 100 µM
[55]
  TGI: > 100 µM
[50]
  TGI: > 100 µM

## CCSC(=O)N1c2ccc(OC)cc2C=CC1C#N (stereo unspecified)
[1]
  TGI: 7.43 µM
[5]
  TGI: > 1000 µM
[6]
  TGI: 0.0467 µM
[7]
  TGI: > 1000 µM
[52]
  TGI: 121 µM
[8]
  TGI: > 1000 µM
[10]
  GI50: 0.596 µM
  TGI: > 1000 µM
[11]
  TGI: > 1000 µM
[12]
  TGI: > 1000 µM
[16]
  GI50: 0.231 µM
  TGI: > 1000 µM
[18]
  TGI: 0.0062 µM
[19]
  TGI: 0.224 µM
[56]
  TGI: 0.0105 µM
[21]
  TGI: > 1000 µM
[57]
  TGI: 734 µM
[22]
  TGI: 0.0382 µM
[27]
  TGI: 689 µM
[28]
  TGI: > 1000 µM
[30]
  TGI: 0.00522 µM
[32]
  GI50: 0.00168 µM
[33]
  TGI: 1.02 µM
[58]
  GI50: 0.000805 µM
  TGI: > 1000 µM
[34]
  TGI: > 1000 µM
[59]
  GI50: 0.00254 µM
[37]
  TGI: 0.00582 µM
[41]
  TGI: 199 µM
[42]
  TGI: > 1000 µM
[60]
  GI50: 0.0003 µM
  TGI: 0.00138 µM
[61]
  GI50: 0.000369 µM
  TGI: 0.00553 µM
[62]
  GI50: 0.529 µM
[43]
  TGI: > 1000 µM
[44]
  TGI: > 1000 µM
[45]
  TGI: 737 µM
[63]
  GI50: 0.214 µM
  TGI: > 1000 µM
[48]
  TGI: > 1000 µM
[51]
  GI50: 6.08 µM
  TGI: > 1000 µM

## O=C(O)CCc1ccc(-c2ccccc2)[nH]1
[1]
  TGI: > 100 µM
[3]
  TGI: > 100 µM
[4]
  TGI: > 100 µM
[5]
  TGI: > 100 µM
[6]
  TGI: > 100 µM
[7]
  TGI: > 100 µM
[52]
  TGI: > 100 µM
[8]
  TGI: > 100 µM
[9]
  TGI: > 100 µM
[10]
  TGI: > 100 µM
[11]
  TGI: > 100 µM
[12]
  TGI: > 100 µM
[13]
  TGI: > 100 µM
[14]
  TGI: > 100 µM
[16]
  TGI: > 100 µM
[17]
  TGI: > 100 µM
[18]
  TGI: > 100 µM
[19]
  TGI: > 100 µM
[20]
  TGI: > 100 µM
[56]
  TGI: > 100 µM
[21]
  TGI: > 100 µM
[57]
  TGI: > 100 µM
[22]
  TGI: > 100 µM
[23]
  TGI: > 100 µM
[25]
  TGI: > 100 µM
[26]
  TGI: > 100 µM
[27]
  TGI: > 100 µM
[64]
  TGI: > 100 µM
[28]
  TGI: > 100 µM
[29]
  TGI: > 100 µM
[30]
  TGI: > 100 µM
[31]
  TGI: > 100 µM
[32]
  TGI: > 100 µM
[65]
  TGI: > 100 µM
[58]
  TGI: > 100 µM
[34]
  TGI: > 100 µM
[35]
  TGI: > 100 µM
[36]
  TGI: > 100 µM
[59]
  TGI: > 100 µM
[37]
  TGI: > 100 µM
[38]
  TGI: > 100 µM
[39]
  TGI: > 100 µM
[40]
  TGI: > 100 µM
[41]
  TGI: > 100 µM
[42]
  TGI: > 100 µM
[54]
  TGI: > 100 µM
[60]
  TGI: > 100 µM
[61]
  TGI: > 100 µM
[62]
  TGI: > 100 µM
[43]
  TGI: > 100 µM
[44]
  TGI: > 100 µM
[45]
  TGI: > 100 µM
[47]
  TGI: > 100 µM
[63]
  TGI: > 100 µM
[48]
  TGI: > 100 µM
[49]
  TGI: > 100 µM
[55]
  TGI: > 100 µM
[66]
  TGI: > 100 µM
[51]
  TGI: > 100 µM

## O=C(Nn1cc(F)c(=O)[nH]c1=O)C12CC3CC(CC(C3)C1)C2
[1]
  TGI: 63.3 µM
[3]
  TGI: 23.5 µM
[4]
  TGI: 49.1 µM
[5]
  TGI: > 72.6 µM
[6]
  TGI: 51.8 µM
[7]
  TGI: > 75.9 µM
[52]
  TGI: > 100 µM
[8]
  TGI: > 86.6 µM
[9]
  TGI: > 86.8 µM
[10]
  TGI: > 95.1 µM
[11]
  TGI: 32.2 µM
[12]
  TGI: 47.9 µM
[13]
  TGI: 53 µM
[14]
  TGI: 44.5 µM
[16]
  TGI: 80.1 µM
[17]
  TGI: 18.4 µM
[18]
  TGI: 35.1 µM
[19]
  TGI: 12.2 µM
[20]
  TGI: > 72 µM
[56]
  TGI: > 100 µM
[21]
  TGI: 27.5 µM
[57]
  TGI: > 80.2 µM
[22]
  TGI: 24.9 µM
[23]
  TGI: > 100 µM
[25]
  TGI: 98.2 µM
[26]
  TGI: > 100 µM
[27]
  TGI: 42.5 µM
[64]
  TGI: 57.8 µM
[28]
  TGI: > 89.1 µM
[29]
  TGI: 24.4 µM
[30]
  TGI: 54.3 µM
[31]
  TGI: 37.1 µM
[32]
  TGI: 25.6 µM
[65]
  TGI: 79.3 µM
[58]
  TGI: > 100 µM
[34]
  TGI: > 66.2 µM
[35]
  TGI: 77.5 µM
[36]
  TGI: > 100 µM
[59]
  TGI: > 100 µM
[37]
  TGI: 16.3 µM
[38]
  TGI: 26.8 µM
[39]
  TGI: 19.7 µM
[40]
  TGI: > 100 µM
[41]
  TGI: > 96.4 µM
[42]
  TGI: 54.4 µM
[54]
  TGI: 27.8 µM
[60]
  TGI: > 57 µM
[61]
  TGI: > 56 µM
[62]
  TGI: 37 µM
[43]
  TGI: 45 µM
[44]
  TGI: > 100 µM
[45]
  TGI: 32.7 µM
[47]
  TGI: 42.6 µM
[63]
  TGI: 45.5 µM
[48]
  TGI: 63.8 µM
[49]
  TGI: > 81.2 µM
[55]
  TGI: > 100 µM
[66]
  TGI: > 81.2 µM
[51]
  TGI: > 100 µM
